One assay addresses B-Raf (V600E)-kinase (Homo sapiens (Human), UniProt P15056, V600E). Put plainly: Kinase test B-Raf (V600E). Format: biochemical. The following applies: 250 μM ATP, biotinylated MEK1 substrate. The protocol: Kinase test B-Raf (V600E)
In a dilution series 10 μL/well of test substance solution are placed in a multiwell plate. The dilution series is selected so that generally a range of concentrations of 2 μM to 0.119 nM or 0.017 nM is covered. If necessary the initial concentration of 2 μM is changed to 50 μM, 10 μM, 0.4 μM or 0.2857 μM and further dilution is carried out accordingly. The final concentration of DMSO is 5%. 10 μL/well of the B-Raf (V600E)-kinase solution are pipetted in (containing 0.5 ng B-Raf (V600E)-kinase, e.g. from Upstate) in 20 mM Tris-HCl pH 7.5, 0.1 mM EDTA, 0.1 mM EGTA, 0.286 mM sodium orthovanadate, 10% glycerol, 1 mg/mL bovine serum albumin, 1 mM dithiothreitol) and the mixture is incubated for 1 h at RT with shaking. The kinase reaction is started by the addition of 20 μL/well ATP solution [final concentration: 250 μM ATP, 30 mM Tris-HCl pH 7.5, 0.02% Brij, 0.2 mM sodium orthovanadate, 10 mM magnesium acetate, 0.1 mM EGTA, phosphatase cocktail (Sigma, #P2850, dilution recommended by the manufacturer)] and 10 μL/well MEK1 solution [containing 50 ng biotinylated MEK1 (prepared from purified MEK1 according to standard procedure, e.g. with EZ-Link Sulpho-NHS-LC-Biotin reagent, Pierce, #21335)] and carried out for 60 min at RT with constant shaking. The reaction is stopped by the addition of 12 μL/well of a 100 mM EDTA solution and incubation is continued for a further 5 min. 55 μL/well of the reaction solution are transferred into a streptavidin-coated plate (e.g. Streptawell HighBond, Roche, #11989685001) and gently shaken for 1 h at RT in order to bind biotinylated MEK1 to the plate. After elimination of the liquid the plate is washed five times with 200 μL/well of 1×PBS and 100 μL/well solution of primary antibody plus europium-labelled secondary antibody [Anti Phospho-MEK (Ser217/221), Cell Signaling, #9121 and Eu—N1 labelled goat-anti-rabbit antibody, Perkin Elmer, #AD0105] is added, the primary antibody is diluted 1:2000 and the secondary antibody is diluted to 0.4-0.5 μg/mL in Delfia Assay Buffer (Perkin Elmer, #1244-111). After 1 h shaking at RT the solution is poured away and washed five times with 200 μL/well Delfia Wash Buffer (Perkin Elmer, #4010-0010/#1244-114). After the addition of 200 μL/well Enhancement Solution (Perkin Elmer, #4001-0010/#1244-105) the mixture is shaken for 10 min at RT and then measured in a Wallac Victor using the program “Delfia Time Resolved Fluorescence (Europium)”. IC50 values are obtained from these dosage-activity curves using a software program (GraphPadPrizm).

Another assay relates to SK-MEL-28 cells. The assay can be described thus: Inhibition of the proliferation of cultivated human melanoma cells (SK-MEL-28, B-RAF V600E mutated). Format: cell-based. The following applies: 72 h incubation, AlamarBlue. The protocol:
Measurement of the Inhibition of the Proliferation of Cultivated Human Melanoma cells (SK-MEL-28, B-RAF^V600E Mutated)
SK-MEL-28 cells are placed in 96-well flat bottomed dishes in a density of 2500 cells per well in supplemented MEM medium (see above) and incubated overnight in an incubator (at 37° C. and 5% CO2). […] After an incubation period of a further 72 h 20 μL AlamarBlue reagent (Serotec Ltd., #BUF012B) are added to each well and the cells are incubated for a further 3-6 h. The colour change of the AlamarBlue reagent is determined in a fluorescence spectrophotometer (e.g. Gemini, Molecular Devices). EC50 values are calculated using a software program (GraphPadPrizm).
Background: Alamar Blue is a resazurin reagent that responds to reducing activity.

SMILES strings stand for the structures.

By IC50 is commonly meant the point on the concentration scale where inhibition reaches its midpoint. Lower therefore signals inhibition by little substance. One may read the EC50 as the concentration that produces a half-maximal response. Read a low EC50 as greater potency.

B-Raf (V600E)-kinase, sequence (P15056 whole entry V600E): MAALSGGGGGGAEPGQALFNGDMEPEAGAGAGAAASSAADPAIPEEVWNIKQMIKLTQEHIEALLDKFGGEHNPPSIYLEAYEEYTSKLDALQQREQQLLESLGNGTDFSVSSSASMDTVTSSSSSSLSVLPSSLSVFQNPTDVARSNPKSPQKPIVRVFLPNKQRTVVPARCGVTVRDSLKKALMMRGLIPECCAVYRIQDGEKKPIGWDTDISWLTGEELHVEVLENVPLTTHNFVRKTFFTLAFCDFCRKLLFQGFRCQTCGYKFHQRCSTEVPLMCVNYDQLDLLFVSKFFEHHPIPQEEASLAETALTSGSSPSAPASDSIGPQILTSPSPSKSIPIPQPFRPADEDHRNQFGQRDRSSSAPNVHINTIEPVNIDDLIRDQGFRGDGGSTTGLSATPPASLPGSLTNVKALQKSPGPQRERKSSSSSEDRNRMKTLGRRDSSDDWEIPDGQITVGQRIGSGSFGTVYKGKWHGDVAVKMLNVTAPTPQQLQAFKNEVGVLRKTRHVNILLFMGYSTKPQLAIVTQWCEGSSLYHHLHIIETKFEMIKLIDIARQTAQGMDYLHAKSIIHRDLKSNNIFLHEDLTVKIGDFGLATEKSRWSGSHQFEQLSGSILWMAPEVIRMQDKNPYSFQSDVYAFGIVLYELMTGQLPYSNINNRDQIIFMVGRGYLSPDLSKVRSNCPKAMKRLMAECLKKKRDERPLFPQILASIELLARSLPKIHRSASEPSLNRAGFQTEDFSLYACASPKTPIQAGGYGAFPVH

Compound `CCCS(=O)(=O)Nc1ccc(F)c(-n2cc(-c3cncc(OC)c3)c3nc(N4CCN(C)CC4)ccc32)c1F` [I-3] gave an IC50 against B-Raf (V600E)-kinase of 297 nM. This compound showed an EC50 in the assay on SK-MEL-28 cells of 114 nM. With `CCCS(=O)(=O)Nc1ccc(F)c(-n2cc(-c3cncc(OC)c3)c3nc(N4CCN(CCOC)CC4)ccc32)c1F` [I-4], inhibition at B-Raf (V600E)-kinase was half-maximal at 125 nM (IC50). For the same compound, the response with SK-MEL-28 cells was half-maximal at 63 nM (EC50). Taken in the same sequence, the figures for `CCCS(=O)(=O)Nc1ccc(F)c(-n2cc(-c3cncc(OC)c3)c3nc(N(C)C4CCN(C)CC4)cnc32)c1F` [I-5] were 16 nM and 41 nM. Taken in the same sequence, the figures for `CCCS(=O)(=O)Nc1ccc(F)c(-n2cc(-c3cncc(OC)c3)c3nc(N4CCN(C)CC4)ncc32)c1F` [I-6] were 1610 nM and 121 nM.

As to `CCCS(=O)(=O)Nc1ccc(F)c(-n2cc(-c3cncc(OC)c3)c3nc(N(C)C4CCN(C)CC4)ncc32)c1F` [I-7], inhibition at B-Raf (V600E)-kinase was half-maximal at 7 nM (IC50). In addition, the EC50 in the assay with SK-MEL-28 cells turned out to be 40 nM. For `CCCS(=O)(=O)Nc1ccc(F)c(-n2cc(-c3cncnc3)c3nc(N(C)C4CCN(C)CC4)ncc32)c1F` [I-8] the same measures were 4 nM and 6 nM. Taken in the same sequence, the figures for `CCCS(=O)(=O)Nc1ccc(F)c(-n2cc(-c3cncnc3)c3nc(N(C)C4CCN(CC)CC4)ncc32)c1F` [I-9] were 16 nM and 11 nM.

Turning to `CCCS(=O)(=O)Nc1ccc(F)c(-n2cc(-c3cncnc3)c3nc(N(C)C4CCN(C5CC5)CC4)ncc32)c1F` [I-10], the IC50 at B-Raf (V600E)-kinase was 29 nM. `CCCS(=O)(=O)Nc1ccc(F)c(-n2cc(-c3cncnc3)c3nc(N(C)C4CCN(CCOC)CC4)ncc32)c1F` [I-11] had an IC50 on B-Raf (V600E)-kinase of 42 nM. The compound also had an EC50 with SK-MEL-28 cells of 21 nM. For `CCCS(=O)(=O)Nc1ccc(F)c(-n2cc(-c3cncnc3)c3nc(N(C)C4CCNCC4)ncc32)c1F` [I-12] the same measures were 41 nM and 60 nM.

Take `CCCS(=O)(=O)Nc1ccc(F)c(-n2cc(-c3cncnc3)c3nc(N(C)C4CCN(C(=O)OC(C)(C)C)CC4)ccc32)c1F` [I-13]: the EC50 in the assay on SK-MEL-28 cells is 86 nM. The compound `CCCS(=O)(=O)Nc1ccc(F)c(-n2cc(-c3cncnc3)c3nc(N(C)C4CCNCC4)ccc32)c1F` [I-14] showed an EC50 in the assay on SK-MEL-28 cells of 6 nM. On the same count and under the same terms, under `O=S(=O)(CC1CCCO1)Nc1ccc(F)c(-n2cc(-c3cncnc3)c3nc(N4CCNCC4)ccc32)c1F` (stereo not drawn) [I-15] stands 181 nM. On to `CCN1CCN(c2ccc3c(n2)c(-c2cncnc2)cn3-c2c(F)ccc(NS(=O)(=O)CC3CCCO3)c2F)CC1` (stereo not drawn) [I-16], for which the EC50 in the assay with SK-MEL-28 cells is 491 nM. Same read-out and setting: the value for `CN1CCN(c2ccc3c(n2)c(-c2cncnc2)cn3-c2c(F)ccc(NS(=O)(=O)CC3CCCO3)c2F)CC1` (stereo not drawn) [I-17] was 386 nM; that for `CCN1CCN(c2ccc3c(n2)c(-c2cncnc2)cn3-c2c(F)ccc(NS(=O)(=O)CC3CC3)c2F)CC1` [I-18] was 90 nM; that for `CN(c1ncc2c(n1)c(-c1cncnc1)cn2-c1c(F)ccc(NS(=O)(=O)CC2CC2)c1F)C1CCNCC1` [I-19] was 110 nM. Same read-out and setting: under `CN1CCN(c2ccc3c(n2)c(-c2cncnc2)cn3-c2c(F)ccc(NS(=O)(=O)CC3CC3)c2F)CC1` [I-20] stands 72 nM; under `CCCS(=O)(=O)Nc1ccc(F)c(-n2cc(-c3cncnc3)c3nc(N4CCN(CC)CC4)ncc32)c1F` [I-21], 89 nM.

For the compound `CN(c1ccc2c(n1)c(-c1cncnc1)cn2-c1c(F)ccc(NS(=O)(=O)C2CC2)c1F)C1CCN(C(=O)OC(C)(C)C)CC1` [I-22], the EC50 in the assay on SK-MEL-28 cells is 112 nM. The EC50 values of the last two compounds are within 1.5-fold of each other. `CCCS(=O)(=O)Nc1ccc(F)c(-n2cc(-c3cncnc3)c3nc(N4CCN(CC)CC4)ccc32)c1F` [I-23] had an EC50 in the assay with SK-MEL-28 cells of 40 nM. Against the preceding compound, the EC50 is about 2.8-fold lower. Turning to `CCCS(=O)(=O)Nc1ccc(F)c(-n2cc(-c3cncnc3)c3nc(N4CCN(C)CC4)ncc32)c1F` [I-24], in the assay with SK-MEL-28 cells, the EC50 worked out at 68 nM.

Regarding `O=S(=O)(CC1CC1)Nc1ccc(F)c(-n2cc(-c3cncnc3)c3nc(N4CCNCC4)ccc32)c1F` [I-25], in the assay with SK-MEL-28 cells, the EC50 came out at 27 nM. This EC50 is about 2.5-fold lower than that of the compound before.

As to `CCCS(=O)(=O)Nc1ccc(F)c(-n2cc(-c3cncnc3)c3nc(N4CCNCC4)ncc32)c1F` [I-26], the EC50 in the assay with SK-MEL-28 cells was found to be 73 nM.

`CCCS(=O)(=O)Nc1ccc(F)c(-n2cc(-c3cncnc3)c3nc(N4CCN(CC5CC5)CC4)ncc32)c1F` [I-27]: the EC50 in the assay with SK-MEL-28 cells stood at 54 nM. The same measure, in the same setting: the value for `CN(c1ncc2c(n1)c(-c1cncnc1)cn2-c1c(F)ccc(NS(=O)(=O)CC2CC2)c1F)C1CCN(CC2CC2)CC1` [I-28] was 7 nM. Still for that read-out and setting: the value for `CCCS(=O)(=O)Nc1ccc(F)c(-n2cc(-c3cncnc3)c3nc(N4CCN(C5CC5)CC4)ccc32)c1F` [I-29] was 41 nM; that for `CCCS(=O)(=O)Nc1ccc(F)c(-n2cc(-c3cncnc3)c3nc(N(C)C4CCN(C)CC4)ccc32)c1F` [I-30] was 2 nM; that for `CCCS(=O)(=O)Nc1ccc(F)c(-n2cc(-c3cncnc3)c3nc(N4CCN(CC5CC5)CC4)ccc32)c1F` [I-31] was 31 nM. On the same count and under the same terms, the value for `CN1CCC(N(C)c2ccc3c(n2)c(-c2cncnc2)cn3-c2c(F)ccc(NS(=O)(=O)C3CC3)c2F)CC1` [I-32] was 2 nM; that for `CCCS(=O)(=O)Nc1ccc(F)c(-n2cc(-c3cncnc3)c3nc(N4CCNCC4)ccc32)c1F` [I-33] was 14 nM. `CCCN1CCC(N(C)c2ccc3c(n2)c(-c2cncnc2)cn3-c2c(F)ccc(NS(=O)(=O)CCC)c2F)CC1` [I-34]: in the assay on SK-MEL-28 cells, a half-maximal effect (EC50) was put at 2 nM.

`CCCS(=O)(=O)Nc1ccc(F)c(-n2cc(-c3cncnc3)c3nc(N(C)C4CCN(CCOC)CC4)c(F)cc32)c1F` [I-35]: in the assay with SK-MEL-28 cells, the EC50 was found to be 6 nM. On the same count and under the same terms, the value for `CCCS(=O)(=O)Nc1ccc(F)c(-n2cc(-c3cncnc3)c3nc(N(C)C4CCN(CC(C)(C)O)CC4)c(F)cc32)c1F` [I-36] was 7 nM; that for `CCCS(=O)(=O)Nc1ccc(F)c(-n2cc(-c3cncnc3)c3nc(N(C)C4CCN(CC5CC5)CC4)ccc32)c1F` [I-37] was 2 nM. `CCCS(=O)(=O)Nc1ccc(F)c(-n2cc(-c3cncnc3)c3nc(N(C)C4CCN(C5COC5)CC4)ncc32)c1F` [I-38] returned an EC50 in the assay on SK-MEL-28 cells of 5 nM. Same read-out and setting: under `CN(c1ncc2c(n1)c(-c1cncnc1)cn2-c1c(F)ccc(NS(=O)(=O)c2ccoc2)c1F)C1CCN(CC2CC2)CC1` [I-39] stands 0.47 nM. On the same count and under the same terms, under `CCCS(=O)(=O)Nc1ccc(F)c(-n2cc(-c3cncnc3)c3nc(N(C)C4CCN(CC)CC4)c(F)cc32)c1F` [I-40] stands 3 nM; under `[2H]C([2H])([2H])N(c1ccc2c(n1)c(-c1cncnc1)cn2-c1c(F)ccc(NS(=O)(=O)CCC)c1F)C1CCN(CC)CC1` [I-41], 1 nM; under `CCCS(=O)(=O)Nc1ccc(F)c(-n2cc(-c3cncnc3)c3nc(N(C)C4CCN(CC)CC4)ccc32)c1F` [I-42], 0.84 nM. For `CCCS(=O)(=O)Nc1ccc(F)c(-n2cc(-c3cncnc3)c3nc(N(C)C4CCN(CC5CC5)CC4)ncc32)c1F` [I-43], the EC50 with SK-MEL-28 cells came out at 5 nM. The same measure, in the same setting: under `[2H]C([2H])([2H])N(c1ccc2c(n1)c(-c1cncnc1)cn2-c1c(F)ccc(NS(=O)(=O)CCC)c1F)C1CCN(C([2H])([2H])C([2H])([2H])[2H])CC1` [I-44] stands 1 nM; under `CCCS(=O)(=O)Nc1ccc(F)c(-n2cc(-c3cncnc3)c3nc(N(C)C4CCN(CC(C)(C)O)CC4)ccc32)c1F` [I-45], 5 nM; under `[2H]C([2H])([2H])C([2H])([2H])N1CCC(N(C)c2ccc3c(n2)c(-c2cncnc2)cn3-c2c(F)ccc(NS(=O)(=O)CCC)c2F)CC1` [I-46], 3 nM. The same measure, in the same setting: under `CCCS(=O)(=O)Nc1ccc(F)c(-n2cc(-c3cncnc3)c3nc(N(C)C4CCN(CC)CC4)ccc32)c1Cl` [I-47] stands 2 nM.

These data come from patent US8889684B2, “Azaindolylphenyl sulfonamides as serine/threonine kinase inhibitors” (Boehringer Ingelheim International GmbH, priority 2011, dated 2014).
